Data on 17 compounds can be found in PMC10976095 (Vaccines, 2024).

The subject of assay [1] is Mafa-A63:02 MHC class I molecules. It is filed as binding, Macaca fascicularis.
The target in assay [2] is HLA-B*40:01 (Homo sapiens, UniProt P01889, A65T/A93T/A95T/D138N/D98Y/E176V/E69K/N87E/Q56L/Q94N/R180L/S121R/S35A/S48T/T167S/V36M/W171L/Y33H/Y91S). The assay is described as follows: biochemical. It is filed as binding.
For assay [3], the target named is HLA-B*44:02 (Homo sapiens, UniProt P01889, A223V/A65T/A93T/A95T/D201E/D98Y/E176V/E187L/E204Q/E69K/G107R/H137Y/K202T/L105A/L119I/N104T/N87E/Q56L/Q94N/R106L/R155S/R180D/S101N/S121R/S35A/S48T/T118I/V36M/W191S/Y140D/Y91S). Kind of assay: biochemical. The assay is classed as binding.
Assay [4] concerns the target HLA-B*15:01 (Homo sapiens, UniProt P01889, A329T/A93T/A95T/C349S/D201E/D98Y/E187L/E204Q/E69M/E70A/K202T/N87E/Q94N/R155S/R180W/S121R/S35A/S48A/V306I/V36M/Y140S/Y91S). The assay is described as follows: biochemical. It is filed as binding.
The target of assay [5] is HLA-A*32:01 (Homo sapiens, UniProt P04439, A270S/D101S/D185E/E176V/E277Q/F133L/G103R/G107R/G231S/H175R/I121M/I218V/I322F/K168Q/L105A/L300P/L318F/M331R/P208A/P217A/Q94H/R106L/R138Q/S129P/T104I/T323A/T345S/V100E/V321M/V358M). Kind of assay: biochemical. The assay is classed as binding.
Assay [6] has as its target HLA-A*30:02 (Homo sapiens, UniProt P04439, D101N/D140H/D185E/E176R/F33S/G80R/H175R/K168Q/Q94H/R138E/R41S/V100E). Kind of assay: biochemical. It is filed as binding.
The target of assay [7] is HLA-A*24:02 (Homo sapiens, UniProt P04439, D101N/D140Y/D185E/E176V/E190D/F33S/G103R/G107R/I119L/I121M/I306V/K335N/L105A/L180Q/L300P/N151K/N90K/Q86E/Q94H/R106L/R138H/R89G/T104I/T345S/V100E/W191G/Y123F). The assay is described as follows: biochemical. It is filed as binding.
For assay [8], the target named is HLA-A*02:01 (Homo sapiens, UniProt P04439, D140Y/D185E/D98H/E176V/E277Q/G131W/G231S/I119V/I121R/I166T/I218V/L300P/L318F/N151K/N90K/P208A/P217A/Q86G/Q94H/R138H/R169H/T345S). The assay is described as follows: biochemical. It is filed as binding.
Assay [9] addresses HLA-A*02:03 (Homo sapiens, UniProt P04439, A173T/D140Y/D185E/D98H/E277Q/G131W/G231S/I119V/I121R/I166T/I218V/L180W/L300P/L318F/N151K/N90K/P208A/P217A/Q86G/Q94H/R138H/R169H/T345S). Kind of assay: biochemical. The assay is classed as binding.
Assay [10] concerns the target HLA-A*02:06 (Homo sapiens, UniProt P04439, D140Y/D185E/D98H/E176V/E277Q/F33Y/G131W/G231S/I119V/I121R/I166T/I218V/L300P/L318F/N151K/N90K/P208A/P217A/Q86G/Q94H/R138H/R169H/T345S). The assay is described as follows: biochemical. It is filed as binding.
The target of assay [11] is HLA-B*07:02 (Homo sapiens, UniProt P01889). Kind of assay: biochemical. The assay is classed as binding.
Assay [12] deals with HLA-B*08:01 (Homo sapiens, UniProt P01889, A93T/A95T/D138N/E176V/E187T/K202T/Q94N/R180D/S35A/V36M/Y33D/Y91F). The assay is described as follows: biochemical. It is filed as binding.
Assay [13] concerns the target HLA-A*23:01 (Homo sapiens, UniProt P04439, D101N/D140Y/D185E/E176V/E190D/F33S/G103R/G107R/H175R/I119L/I121M/I306V/K168Q/K335N/L105A/L300P/N151K/N90K/P307H/Q86E/Q94H/R106L/R138H/R89G/T104I/T345S/V100E/W191G/Y123F). Kind of assay: biochemical. The assay is classed as binding.
Assay [14] has as its target HLA-A*03:01 (Homo sapiens, UniProt P04439). The assay is described as follows: biochemical. It is filed as binding.
The target of assay [15] is HLA-A*30:01 (Homo sapiens, UniProt P04439, D140H/D185E/E176W/F33S/G80R/H175R/K168Q/R138E/R41S). The assay is described as follows: biochemical. The assay is classed as binding.
In assay [16] the target is HLA-A*68:02 (Homo sapiens, UniProt P04439, A269V/D140Y/D185E/E176V/E277Q/E87N/F33Y/G231S/I121R/I166T/I218V/L180W/L300P/L318F/N151K/P208A/P217A/Q86R/R138H/R169H/S129P/T345S/V36M). The assay is described as follows: biochemical. It is filed as binding.
Assay [17] concerns the target HLA-B*27:05 (Homo sapiens, UniProt P01889, D138H/D201E/E176V/E204Q/G107R/H137Y/K202T/N104T/N87E/Q56L/Q94K/R106L/R155S/R180L/S101D/S121N/S48T/Y140D/Y33H/Y91C). The assay is described as follows: biochemical. It is filed as binding.

Where a SMILES comes first, the peptide text is derived from it.

Consider GPRKPIKCW, for which the “score on the t-SNE T2 axis (Mafa-A063 binding affinity and stability)” value (shortened to “score on the t-SNE T2 axis”) in assay [1] is reported as “scored high”.

In the case of `CC(C)[C@H](NC(=O)[C@H](CCCNC(=N)N)NC(=O)[C@H](C)NC(=O)[C@H](Cc1ccccc1)NC(=O)[C@@H]1CCCN1C(=O)[C@H](C)NC(=O)[C@H](Cc1ccc(O)cc1)NC(=O)[C@H](CCC(=O)O)NC(=O)CN)C(=O)O` (H-GEYAPFARV-OH), the IC50 in [2] came to 107 nM; in assay [3], 214 nM.

As for `CC(C)[C@H](NC(=O)[C@H](CCC(=O)O)NC(=O)[C@H](CC(N)=O)NC(=O)[C@H](CCCCN)NC(=O)[C@@H](NC(=O)[C@@H](N)CCCCN)C(C)C)C(=O)N[C@@H](C)C(=O)N[C@@H](CO)C(=O)N[C@@H](Cc1ccccc1)C(=O)O` [KF9] (H-KVKNEVASF-OH), the IC50 is 5.6 nM in [4], 2.9 nM in assay [5] and 158 nM in assay [6].

`CC[C@H](C)[C@H](NC(=O)[C@H](CC(C)C)NC(=O)[C@@H]1CCCN1C(=O)[C@H](CO)NC(=O)[C@H](Cc1ccc(O)cc1)NC(=O)[C@@H](N)Cc1c[nH]cn1)C(=O)N[C@@H](CC(C)C)C(=O)N[C@@H](C)C(=O)N[C@@H](CC(C)C)C(=O)O` [HL9] (H-HYSPLILAL-OH): 64 nM corresponded to half-maximal inhibition in [7] (IC50). This lies in the double-digit nanomolar range.

With `CC(C)C[C@H](NC(=O)[C@H](CCC(N)=O)NC(=O)[C@@H]1CCCN1C(=O)[C@H](Cc1ccc(O)cc1)NC(=O)[C@H](CC(C)C)NC(=O)CNC(=O)[C@H](Cc1c[nH]cn1)NC(=O)[C@H](CCC(=O)O)NC(=O)[C@@H](N)CC(C)C)C(=O)O` (H-LEHGLYPQL-OH), the IC50 in assay [2] came to 14 nM; in assay [3], 3.4 nM.

For HPAQTSQW, the “score on the t-SNE T2 axis” value in assay [1] is on record as “scored high”.

For the compound `CC[C@H](C)[C@H](NC(=O)[C@H](C)NC(=O)[C@H](CO)NC(=O)[C@H](CC(C)C)NC(=O)[C@H](CCC(N)=O)NC(=O)[C@@H]1CCCN1C(=O)[C@H](Cc1ccc(O)cc1)NC(=O)[C@H](CC(C)C)NC(=O)CN)C(=O)O` (H-GLYPQLSAI-OH), the results for the IC50 in assay [8], in [9] and in assay [10] were 5.9 nM, 1.4 nM and 6.9 nM, respectively.

As for `CC(C)C[C@H](NC(=O)[C@H](CC(N)=O)NC(=O)[C@H](CC(C)C)NC(=O)[C@@H](NC(=O)[C@H](CCCNC(=N)N)NC(=O)[C@H](C)NC(=O)[C@H](Cc1ccccc1)NC(=O)[C@@H]1CCCN1C(=O)[C@H](C)N)C(C)C)C(=O)O` [AL9] (H-APFARVLNL-OH), the values for the IC50 in assay [11] and in [12] were 0.21 nM and 67 nM, respectively.

With `CC(C)C[C@H](NC(=O)[C@H](CO)NC(=O)[C@H](CS)NC(=O)[C@H](Cc1ccccc1)NC(=O)[C@H](CO)NC(=O)[C@H](CC(C)C)NC(=O)[C@H](Cc1ccccc1)NC(=O)[C@@H](N)CC(C)C)C(=O)N[C@@H](Cc1ccccc1)C(=O)O` [reference compound] (H-LFLSFCSLF-OH), the IC50 in [7] amounted to 633 nM; in assay [13], 33 nM.

Consider `CC[C@H](C)[C@H](NC(=O)[C@H](Cc1ccccc1)NC(=O)[C@H](CCC(=O)O)NC(=O)[C@H](CC(C)C)NC(=O)[C@@H](NC(=O)[C@@H](N)[C@@H](C)O)C(C)C)C(=O)N[C@@H](CC(C)C)C(=O)N[C@@H](CCC(N)=O)C(=O)N[C@@H](CCCCN)C(=O)O` (H-TVLEFILQK-OH), for which the results for the IC50 in [14] and in assay [15] were 19 nM and 365 nM, respectively.

As for RPKVPLRTM, in assay [1], the “score on the t-SNE T2 axis” value was “scored high”.

Turning to `CC[C@H](C)[C@H](NC(=O)[C@@H](N)CC(C)C)C(=O)N[C@H](C(=O)N[C@@H](CCCCN)C(=O)N[C@H](C(=O)N[C@H](C(=O)N[C@@H](CC(C)C)C(=O)N[C@@H](CCC(=O)O)C(=O)N[C@@H](Cc1ccccc1)C(=O)O)C(C)C)[C@@H](C)O)C(C)C` (H-LIVKTVLEF-OH), the half-maximal inhibitory concentration (IC50) in assay [4] turned out to be 0.8 nM; in [13] it was 109 nM.

As to `CC(C)C[C@H](NC(=O)[C@H](Cc1ccccc1)NC(=O)[C@H](CC(C)C)NC(=O)[C@H](CO)NC(=O)[C@H](CS)NC(=O)[C@H](Cc1ccccc1)NC(=O)[C@H](CO)NC(=O)[C@H](CC(C)C)NC(=O)[C@@H](N)Cc1ccccc1)C(=O)O` [reference compound] (H-FLSFCSLFL-OH), the IC50 in [8] is 1.8 nM; in [9] it was 29 nM; in assay [10], 121 nM.

Consider `CC[C@H](C)[C@H](NC(=O)[C@H](C)NC(=O)[C@H](CO)NC(=O)[C@H](CC(C)C)NC(=O)[C@H](CCC(N)=O)NC(=O)[C@@H]1CCCN1C(=O)[C@H](Cc1ccc(O)cc1)NC(=O)[C@@H](N)CC(C)C)C(=O)N[C@@H](C)C(=O)N[C@@H](CC(C)C)C(=O)O` [LYPQLSAIAL, reference compound] (H-LYPQLSAIAL-OH), for which, in assay [11], inhibition was half-maximal at 134 nM (IC50).

In the case of `CC[C@H](C)[C@H](NC(=O)[C@H](C)NC(=O)[C@H](CO)NC(=O)[C@H](CC(C)C)NC(=O)[C@@H](N)CCC(N)=O)C(=O)N[C@@H](C)C(=O)N[C@@H](CC(C)C)C(=O)NCC(=O)N[C@H](C(=O)O)C(C)C` (H-QLSAIALGV-OH), the half-maximal inhibitory concentration (IC50) in assay [16] came out at 11 nM; in assay [8], 3.9 nM; in assay [9], 4.4 nM; in assay [10] it was 12 nM; in [5] it was 81 nM.

With `CC[C@H](C)[C@H](NC(=O)[C@H](CC(C)C)NC(=O)[C@@H](N)CC(C)C)C(=O)N[C@H](C(=O)N[C@@H](CCCCN)C(=O)N[C@H](C(=O)N[C@H](C(=O)N[C@@H](CC(C)C)C(=O)O)C(C)C)[C@@H](C)O)C(C)C` [reference compound] (H-LLIVKTVL-OH), the IC50 in assay [12] came to 6.1 nM. In other words, the single-digit nanomolar range.

As for `CC[C@H](C)[C@H](NC(=O)[C@H](CC(C)C)NC(=O)[C@H](CC(C)C)NC(=O)CNC(=O)[C@H](CO)NC(=O)[C@H](Cc1ccccc1)NC(=O)[C@H](CCCNC(=N)N)NC(=O)[C@@H](NC(=O)[C@@H](N)CCC(N)=O)[C@@H](C)O)C(=O)N[C@H](C(=O)O)C(C)C` (H-QTRFSGLLIV-OH), the IC50 in assay [4] was found to be 4680 nM; in [15], 421 nM; in [17], 533 nM.

By IC50 is commonly meant the point on the concentration scale where inhibition reaches its midpoint. Read a high IC50 as weaker potency.
